Measurements reported in paper PMC9501280, “Anti-Inflammatory Activity of Soluble Epoxide Hydrolase Inhibitors Based on Selenoureas Bearing an Adamantane Moiety” (International Journal of Molecular Sciences, 2022).

Tests used:
[1] = test system: C57bl/6j peritoneal macrophages; assay: MTT cytotoxicity on peritoneal macrophages; format: cell-based, mice; conditions: Mus musculus, Peritoneal macrophage, read-out: EC50 ± SEM, C57bl/6j
Description: (§1) Peritoneal macrophages (PM) were isolated from the peritoneal exudate of 30 male C57bl/6j mice. To accumulate PM, 1 mL of 3% peptone solution was injected intraperitoneally. After 3 days, the mice were euthanized by cervical dislocation. Cells of peritoneal exudate were obtained by aseptic washing of the abdominal cavity with 5 mL of sterile Hanks’s solution (+4–6 °C) without calcium and magnesium ions. The total number and viability of cells were assessed in a Goryaev counting chamber (Russia) with a 0.4% trypan blue staining (Sigma-Aldrich, St. Louis, MO, USA). The cell concentration was adjusted to 1.0 × 10^6 cells/mL in DMEM (Gibco) supplemented with 2 mM L-glutamine (Gibco), 10% heat-inactivated fetal bovine serum (BioClot, Passau, Germany), 100 U/mL penicillin and […] streptomycin (Gibco) and plated 200 μL/well in 96-well transparent plates (SPL Life Sciences Co., Ltd., Pochon, Korea). After 2 h at 37 °C in a humidified atmosphere with 5% CO2, wells were washed to remove nonadherent cells. After 24 h of incubation, 20 μL of the supernatants were substituted with 20 μL of solutions of the test compounds, followed with E. coli O127:B8 LPS (100 ng/mL final concentration) after 30 min. Experiments were run in 3 independent replicates.
(§2) The activity of lactate dehydrogenase (LDH) in a cell culture medium served as a marker of membrane permeability and cell death. Aliquots of supernatants were taken after 24 h of inoculation with test compounds, mixed with 250 μL of […] NADH solution in 54 mM phosphate-buffered saline (pH 7.5). Then, 25 μL of a 6.48 mM pyruvate solution was added to the mixture. The optical density was followed at a wavelength of 340 nm for 20 min. The MTT test was performed 24 h after the incubation of cells with the tested compounds. Briefly, 20 μL of MTT solution was added to each well and incubated at 37 °C in a humidified atmosphere containing 5% CO2 for 4 h. The culture medium was aspirated, the cells were lysed and formazan crystals dissolved in 150 μL of DMSO. The plates were shaken at room temperature for 10 min, and the optical density was measured in a microplate reader Infinite M200 PRO (Tecan Group Ltd., Männedorf, Switzerland) at a wavelength of 565 nm.

[2] = MTT cytotoxicity on peritoneal macrophages; format: cell-based, mice; conditions: male, C57bl/6j, mouse; 24 h incubation; read-out: MTT CC50 ± SE
Description: as §1, §2

[3] = LDH release cytotoxicity on peritoneal macrophages; format: cell-based, mice; conditions: male, C57bl/6j, mouse; 24 h incubation; read-out: LDH CC50 ± SE
Description: as §1
as §2, with “Briefly, 20 μL of MTT solution was added to each well and incubated at 37 °C in a humidified atmosphere containing 5% CO2 for 4 h. The culture medium was aspirated, the cells were lysed and formazan crystals dissolved in 150 μL of DMSO.” left out

[4] = test system: E. coli PQ37; assay: SOS chromotest; format: cell-based
Description: For the final safety check of selenoureas, the SOS chromotest was carried out. […] The results are presented as the mean value of induction factor I (c) ± SEM based on the results of three independent experiments, each of which included three replicates (Table 5).
The SOS chromotest was carried out according to the standard procedure, with recommended additions. The E. coli PQ37 strain was provided by P. Quillardet (Paris, France). The test compounds were dissolved in dimethyl sulfoxide (DMSO) (also used as a negative control) and added to the bacterial medium in the required concentrations; the concentration of the injected solutions was 1% by volume.

[5] = test system: human fibroblast cells (MRC-5); assay: MTT test with human fibroblast cells; format: cell-based; conditions: MRC5, 72 h, read-out: EC50 ± SEM, MRC-5
Description: The studied compounds were added in concentrations of 1, 3, 6, 12, 25, 50, and 100 μM.
Human fibroblast cells (MRC-5) were used in this study. The cells were cultured in the DMEM medium that contained 10% embryonic calf serum in a CO2 incubator at 37 °C. The tested compounds were dissolved in DMSO and added to the cellular culture at the required concentrations. Three wells were used for each concentration. The cells that were incubated without the compounds were used as a negative control, and doxorubicin was used as the positive one. Cells were placed on 96-well microliter plates and cultivated at 37 °C in 5% CO2/95% air for 72 h. The cell viability was assessed through an MTT (3-(4,5-dimethylthiazol-2-yl)-2,5-phenyl-2H-tetrazolium bromide) conversion assay. A total of 1% MTT was added to each well. Three hours later, isopropanol was added and mixed for 15 min. Optical density (OD) of the samples was measured on a ThermoFischer multi-well spectrophotometer at a wavelength of 450 nm. […] The experimental results are given as average values obtained from three independently conducted experiments.

[Se]=C(Nc1ccccc1)NC12CC3CC(CC(C3)C1)C2 [4a, 1-(Adamantan-1-yl)-3-phenylselenourea]
EC50 [1]: 7.5 ± 1.9 µM
CC50 at 24 h [2]: 7.5 ± 1.9 µM
CC50 at 24 h [3]: 29.4 ± 8.5 µM
genotoxic activity (in words) ([4]; SOS chromotest / lux-biosensors): does not exhibit genotoxic properties
I(c) ± SE, 10 µM ([4]; induction factor, compound 10 µM): 1.03 ± 0.13
I(c) ± SE, 25 µM ([4]; induction factor, compound 25 µM): 1.09 ± 0.14
I(c) ± SE, 50 µM ([4]; induction factor, compound 50 µM): 1 ± 0.15
I(c) ± SE, 100 µM ([4]; induction factor, compound 100 µM): 1.08 ± 0.09
EC50 [5]: 3.38 ± 0.49 µM
